Measured values: PubChem BioAssay (NCI)
Values joined by “and” are separate entries in the source; they are usually repeats but may differ in a detail not shown here. Equal entries are not always repeated.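 Cultured in 96-well plates, cells were exposed to test compound for 48 hours across five concentrations. At the GI50, growth is halved. TGI is the concentration that stops growth completely.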

Assays:
Experiment in all cases: NCI-60 cell line screen, 48 h
SN12C renal = test system: SN12C renal
DU-145 prostate = test system: DU-145 prostate
OVCAR-5 ovarian = test system: OVCAR-5 ovarian
SK-MEL-5 melanoma = test system: SK-MEL-5 melanoma
BT-549 breast = test system: BT-549 breast
CCRF-CEM leukemia = test system: CCRF-CEM leukemia
MCF7 breast = test system: MCF7 breast
OVCAR-4 ovarian = test system: OVCAR-4 ovarian
SNB-75 CNS = test system: SNB-75 CNS
RXF 393 renal = test system: RXF 393 renal

SMILES	GI50 (SN12C renal)	TGI (SN12C renal)	GI50 (DU-145 prostate)	TGI (DU-145 prostate)	GI50 (OVCAR-5 ovarian)	TGI (OVCAR-5 ovarian)	GI50 (SK-MEL-5 melanoma)	TGI (SK-MEL-5 melanoma)	GI50 (BT-549 breast)	TGI (BT-549 breast)	GI50 (CCRF-CEM leukemia)	TGI (CCRF-CEM leukemia)	GI50 (MCF7 breast)	TGI (MCF7 breast)	GI50 (OVCAR-4 ovarian)	TGI (OVCAR-4 ovarian)	GI50 (SNB-75 CNS)	TGI (SNB-75 CNS)	GI50 (RXF 393 renal)	TGI (RXF 393 renal)
O=C1Nc2c(C(F)(F)F)cccc2[C@]1(c1ccc(O)cc1)c1ccc(OC(F)(F)F)cc1	2.83 µM	12.3 µM	11.7 µM	23.9 µM	12 µM	24.4 µM	11.9 µM	24.6 µM	2.18 µM	8.43 µM	11.7 µM	49.9 µM	4.05 µM	16.9 µM	0.543 µM	5.23 µM	5.78 µM	19.5 µM	3.29 µM	15.5 µM
Oc1ccc(CN2CCC(N3CCCCC3)CC2)c2cccnc12	8.18 µM	> 100 µM	6.64 µM	> 100 µM	45.4 µM	> 100 µM	15.8 µM	75.9 µM	11.5 µM	> 100 µM	36.1 µM	> 100 µM	21.5 µM	> 100 µM	24.2 µM	> 100 µM	2.85 µM	> 100 µM	11.7 µM	> 100 µM
CCOc1cc2c(Cl)ncnc2c(OCC)c1OCC	12 µM	26.2 µM	1.75 µM	3.14 µM	17.9 µM	33.4 µM	3.8 µM	12.1 µM	4.82 µM	14.5 µM	2.6 µM	6.85 µM	2.3 µM	7.55 µM	13 µM	27.7 µM	3.11 µM	15.9 µM	7.74 µM	22.1 µM
COc1cc(C2=C(c3ccccc3)COC2=O)cc(OC)c1OC	5.96 µM	> 100 µM	4.68 µM	> 100 µM	4.84 µM	> 100 µM	1.4 µM	19.3 µM	33.9 µM	> 100 µM	1.38 µM	> 100 µM	0.537 µM	> 100 µM	38.9 µM	> 100 µM	> 100 µM	> 100 µM	1.56 µM	> 100 µM
O=C(/C(Br)=C/c1ccccc1)c1ccccc1	2.34 µM	5.85 µM	1.77 µM	3.95 µM	3.21 µM	9.22 µM	4.96 µM	17.3 µM	2.08 µM	4.6 µM	0.39 µM	2.01 µM	4.79 µM	52.9 µM	3.79 µM	16.9 µM	10.6 µM	24.2 µM	1.43 µM	2.85 µM
COc1ccc(-c2cc(=O)c3ccc(O)cc3o2)cc1OC	–	> 100 µM	–	> 100 µM	–	> 100 µM	–	41.8 µM	–	> 100 µM	–	> 100 µM	–	> 100 µM	–	> 100 µM	–	> 100 µM	–	38.6 µM
COc1ccc(/C=C/c2nccc3ccccc23)cc1OC	–	> 10 µM	–	> 10 µM	–	> 10 µM	–	> 10 µM	–	> 10 µM	–	> 10 µM	–	> 10 µM	–	> 10 µM	–	> 10 µM	–	> 10 µM
NC(=O)c1ccc(I)c(N)c1	> 100 µM	> 100 µM	> 100 µM	> 100 µM	> 100 µM	> 100 µM	> 100 µM	> 100 µM	> 100 µM	> 100 µM	> 100 µM	> 100 µM	> 100 µM	> 100 µM	> 100 µM	> 100 µM	> 100 µM	> 100 µM	> 100 µM	> 100 µM
Cn1c2ccccc2c2c(-c3ccccc3)[n+]3ccncc3nc21	48.2 µM	> 100 µM	> 100 µM	> 100 µM	> 100 µM	> 100 µM	37.2 µM	> 100 µM	29.6 µM	> 100 µM	89.4 µM	> 100 µM	63.6 µM	> 100 µM	> 100 µM	> 100 µM	> 100 µM	> 100 µM	> 100 µM	> 100 µM
CC[CH2][Sn]([CH2]CC)([O]C(=O)c1cccnc1SC)[O][Sn]([CH2]CC)([CH2]CC)[O]C(=O)c1cccnc1SC	0.453 µM	1.39 µM	2.37 µM	7.11 µM	2.09 µM	3.64 µM	0.898 µM	3.26 µM	1.41 µM	2.71 µM	0.0691 µM	0.756 µM	0.495 µM	1.72 µM	1.03 µM	2.34 µM	0.584 µM	1.97 µM	0.0992 µM	0.342 µM
CC(C)c1nc(CN(C)C(=O)N[C@H](C(=O)N[C@@H](Cc2ccccc2)C[C@H](O)[C@H](Cc2ccccc2)NC(=O)OCc2cncs2)C(C)C)cs1	20.2 µM	50.4 µM	1.42 µM	–	28.2 µM	71.5 µM	17.1 µM	33.5 µM	8.71 µM	> 76.5 µM	19.8 µM	50.5 µM	21 µM	64.9 µM	27.2 µM	> 92.1 µM	20.4 µM	54.3 µM	17.7 µM	35.8 µM
O=C1CCCCN1CCCCC#Cc1ccccc1C#Cc1ccc([N+](=O)[O-])cc1	17.1 µM	37.3 µM	17.5 µM	36 µM	5.25 µM	18.7 µM	1.75 µM	3.88 µM	16.6 µM	44.6 µM	2.87 µM	18.2 µM	1.38 µM	3.65 µM	4.38 µM	22.5 µM	2.21 µM	28.9 µM	1.68 µM	11.1 µM
N#Cc1ccc(O)c(C2=NCC(c3cccc(Oc4ccccc4)c3)O2)c1 (configuration not stated)	1.21 µM	89.5 µM	1.27 µM	> 100 µM	2.95 µM	> 100 µM	0.549 µM	2.3 µM	1.96 µM	17.8 µM	0.555 µM	> 100 µM	0.792 µM	15.8 µM	0.519 µM	> 100 µM	1.08 µM	> 100 µM	1.53 µM	9.56 µM
Oc1c(CN2CCC(N3CCCCC3)CC2)cc(Cc2cc(CN3CCC(N4CCCCC4)CC3)c(O)c3ncccc23)c2cccnc12	1.62 µM	16 µM	0.871 µM	16.1 µM	2.74 µM	20.3 µM	1.15 µM	2.59 µM	1.48 µM	5.13 µM	0.403 µM	3.51 µM	0.865 µM	10.3 µM	0.435 µM	13.6 µM	1.65 µM	13.4 µM	1.94 µM	10.2 µM
CC[C@@H]1CN(C)[C@H]2Cc3c([nH]c4ccccc34)C(=O)C[C@H]1C2C(=O)OC (some centres not stated)	–	> 100 µM	–	> 100 µM	–	> 100 µM	–	> 100 µM	–	> 100 µM	–	> 100 µM	–	> 100 µM	–	> 31.6 µM	–	> 100 µM	–	> 100 µM
C=C1C(=O)O[C@H]2[C@H]1CC/C(COC(=O)c1ccc3ccccc3c1)=C\CC[C@@]1(C)O[C@@H]21	1.16 µM	2.87 µM	0.945 µM	2.23 µM	1.59 µM	3.57 µM	1.63 µM	3 µM	0.57 µM	2.03 µM	0.28 µM	1.38 µM	0.457 µM	2.52 µM	1.52 µM	3.32 µM	1.44 µM	3.05 µM	0.286 µM	1.48 µM
CCN(CC)c1ccc(/C=C/c2ccc3cc(C)ccc3[n+]2CC)cc1	0.124 µM	1.2 µM	0.0942 µM	12.7 µM	0.309 µM	16.8 µM	0.0493 µM	0.261 µM	0.0314 µM	1.39 µM	0.299 µM	29.9 µM	0.0773 µM	3.26 µM	0.0468 µM	12.1 µM	0.161 µM	6.24 µM	0.216 µM	3.41 µM
COc1ccc(-c2cc(=O)c3c(OC)c(OC)c(OC)cc3o2)cc1	–	91.1 µM	–	> 100 µM	–	> 100 µM	–	43.3 µM	–	> 100 µM	–	74 µM	–	> 100 µM	–	> 100 µM	–	> 100 µM	–	> 100 µM
COC(=O)[C@]12CC[C@@H](C)[C@H](C)[C@@H]1C1=CC[C@@H]3[C@@]4(C)C/C(=N\O)[C@H](O)[C@@]5(C)COC(=C45)C[C@@]3(C)[C@]1(C)CC2	5.79 µM	21.2 µM	8.57 µM	22.8 µM	15.9 µM	33.6 µM	13.1 µM	25.8 µM	15.7 µM	34.8 µM	2.79 µM	8.83 µM	3.5 µM	15.3 µM	4.46 µM	18.6 µM	3.51 µM	21.4 µM	2.41 µM	7.36 µM
COc1ccc(-c2cnnc3c(-c4cccc(C(F)(F)F)c4)cnn23)cc1	3.07 µM	> 100 µM	3.97 µM	> 100 µM	> 100 µM	> 100 µM	3.85 µM	> 100 µM	3.4 µM	> 100 µM	> 100 µM	> 100 µM	> 100 µM	> 100 µM	–	–	1.51 µM	4.6 µM	0.0291 µM	3.07 µM
Oc1ccc(NCc2nc3ccccc3[nH]2)cc1	61.4 µM	> 100 µM	75.9 µM	> 100 µM	> 100 µM	> 100 µM	72.4 µM	> 100 µM	50.1 µM	> 100 µM	> 100 µM	> 100 µM	32.8 µM	> 100 µM	28.7 µM	> 100 µM	18 µM	62.5 µM	30.3 µM	> 100 µM
C[C@]12CC[C@H]3[C@@H](CC=C4C[C@@H](O)CC[C@@]43C)[C@@H]1CC[C@@H]2N(CCO)CCO	–	> 100 µM	–	> 100 µM	–	> 100 µM	–	> 100 µM	–	> 100 µM	–	> 100 µM	–	> 100 µM	–	> 100 µM	–	> 100 µM	–	> 100 µM
CC(C)(C)OC(=O)N1CCc2c(sc3ncnc(N/N=C/c4cccc5ccccc45)c23)C1	5.04 µM	32.9 µM	5.51 µM	> 100 µM	4.71 µM	> 100 µM	3.36 µM	11.1 µM	8.45 µM	72.9 µM	3.6 µM	> 100 µM	3.14 µM	> 100 µM	3.79 µM	80.6 µM	1.67 µM	8.2 µM	2.54 µM	7.41 µM
OCc1c[nH]c2ccccc12	18.9 µM	39.7 µM	28.7 µM	77.4 µM	20.8 µM	58.6 µM	14.4 µM	30.1 µM	28.9 µM	73.3 µM	26.9 µM	> 100 µM	29.4 µM	95.4 µM	33 µM	> 100 µM	24.2 µM	> 100 µM	18.2 µM	43.8 µM
N#CSc1c[nH]c2cccc(/C=C/C(=O)/C=C(/C=C/c3cccc4[nH]cc(SC#N)c34)OB(F)F)c12	0.495 µM	3.72 µM	1.1 µM	2.63 µM	1.81 µM	6.91 µM	1.23 µM	2.92 µM	1.26 µM	3.86 µM	0.315 µM	17.6 µM	0.459 µM	3.63 µM	0.338 µM	3.95 µM	2.18 µM	7.55 µM	0.226 µM	0.516 µM
COc1cc2c(c(O)c1Br)C(=O)c1c(O)cc(C[C@H](C)O)cc1[C@H]2[C@H]1c2cc(C[C@H](C)O)cc(O)c2C(=O)c2c1cc(OC)c(Br)c2O	2.25 µM and 3.64 µM	67.5 µM and > 100 µM	4.8 µM and 23.1 µM	67.5 µM and > 100 µM	11.1 µM and 17.1 µM	27.4 µM and 46.5 µM	7.44 µM and 15 µM	16 µM and 28.5 µM	10.9 µM and 7.55 µM	63.5 µM and 45.2 µM	3.86 µM and 14.3 µM	67.5 µM and 92.9 µM	2.44 µM and 3.58 µM	67.5 µM and > 100 µM	11.1 µM and 25 µM	67.5 µM and 98.1 µM	5.09 µM and 16 µM	56.5 µM and 67 µM	2.59 µM and 2.72 µM	22 µM and 9.33 µM
